Several values for one entry are separate records, joined by “and”; a condition that tells them apart may be missing. Equal entries are not always repeated.
Columns and labels:
HO-1 = experiment: Renal cortical HO-1 mRNA (RT-PCR) and protein (ELISA) after IV myoglobin, SnPP or both (Example 1); format: in vivo, mice
From the text: The Glycerol Model of AKI. This is a widely used model of rhabdomyolysis-induced AKI that has been employed worldwide for 50 years. The model was used to test whether prophylactic interventions confer protection against AKI. Basically, the protocol is as follows: Male CD-1 mice (35-45 grams), obtained from Charles River Laboratories, Wilmington, M A were studied. Mice were maintained under standard vivarium conditions and generally housed for 1-3 weeks prior to study. The mice were placed in a cylindrical restraining cage, and then were given a tail vein injection of the test substances (see below) or test substance vehicle. The mice were then returned to their cages. Eighteen hours (hrs) later, the mice were briefly anesthetized by isoflurane inhalation, and given an intramuscular injection of hypertonic (50%) glycerol in a dose of 9 ml/Kg body weight. The dose is divided in two, with half injected into the muscle of each of the hind limbs. The mice were then returned to their cages. Eighteen hrs later, the mice were deeply anesthetized with pentobarbital (50-100 mg/Kg), the abdominal cavity was opened through a midline abdominal incision, a blood sample was obtained from the abdominal vena cava and the kidneys were resected. A kidney cross section was obtained and fixed in formalin for subsequent histologic analysis. The terminal blood samples were analyzed for BUN and creatinine, using commercially available assay kits. The remaining kidney tissue was subjected to cortical dissection, and the cortical tissues were then extracted for protein and RNA. The protein samples were saved for analysis of HO-1 levels, and the RNA samples were subjected to RT-PCR to quantify HO-1 mRNA as well as levels of other stress gene mRNAs (e.g. NGAL, haptoglobin, hemopexin, hepicidin).
Myoglobin+SnPP: To 5 mg of dry myoglobin was added 0.9 ml of PBS+0.1 ml of a stock SnPP solution (50 umole/ml). The resulting final concentrations were 5 mg/ml myoglobin+5 umoles/ml of SnPP. The tail vein was injected with 200 μl of this solution, which equals 1 mg myoglobin+1 umole SnPP. […]
Four hr post myoglobin vs myoglobin+SnPP vs SnPP alone experiments. To confirm that the myoglobin+SnPP has a synergistic effect in inducing HO-1 mRNA and HO-1 protein levels, each of the above combinations have been administered alone via tail vein injection. Four hrs later, the mice were sacrificed as noted above and the kidneys were harvested for assessment of HO-1 mRNA and protein levels. For additional information regarding methods, see Zager et al., Am J Physiol Renal Physiol. 2014 Jul. 30. Pii.

Male CD-1 mice = experiment: Glycerol model of rhabdomyolysis-induced AKI (Example 4); format: in vivo; conditions: IV pretreatment 18 hours before glycerol; 18 hours after glycerol
Method: Assessments of cytoresistance. Glycerol model of rhabdomyolysis-induced AKI. Twenty mice were divided into 4 equal groups (controls, mice treated with N-Mgb, SnPP, and mice treated with N-Mgb+SnPP tail vein injections) as described previously. 18 hours later, the mice were briefly anesthetized with isoflurane and immediately injected with 9 mL/kg of 50% glycerol, administered in equally divided doses into each hind limb. At 18 hours after glycerol injection, the mice were anesthetized with pentobarbital, the abdomen was opened, a blood sample for BUN and creatinine assessments was obtained from the vena cava, and the kidneys were resected. The control post-glycerol group and the N-Mgb+SnPP-pretreated glycerol group had kidney sections stained with H&E.
Calculations and statistics. All values are given as the mean […] standard error of the mean. Statistical comparisons were made by unpaired Student's t test. If multiple comparisons were made, the Bonferroni correction was applied. The severity of renal histologic injury in the glycerol AKI model was graded on a […] (least to most severe tubular necrosis and cast formation observed). The histologic results were compared by Wilcoxon rank sum test. Statistical significance was taken as a P value of <0.05.

[1] = Berglund et al. Hepatology 1988; cited from earlier work
IL-10 = experiment: Liver IL-10 mRNA and protein after IV N-Mgb, SnPP or both; format: in vivo, mice; conditions: for Liver mRNA: IL-10: control 0.06; for Liver protein: IL-10: control 314
Method: Thirty-two mice were divided into 4 equal groups: (1) control mice; (2) mice treated with 1 mg of N-Mgb injection (as a bolus through the tail vein); (3) mice treated with […] of SnPP (via tail vein); and (4) mice treated with combined N-Mgb 1 SnPP. After either 4 hours (n=16) or 18 hours (n=16), the mice were deeply anesthetized with pentobarbital (50 mg/kg), the abdomen was opened through a midline abdominal incision, and the kidneys were removed. To determine potential effects on extrarenal organs, a liver lobe and the heart were also removed. The tissues were iced and then extracted for protein and RNA (RNeasy Plus Mini; Qiagen, Valencia, California) and subjected to enzyme linked immunosorbent assay (ELISA) and reverse transcriptase polymerase chain reaction (RT-PCR) for HO-1, haptoglobin, and IL-10 protein and messenger RNAs (mRNAs). Zager et al. J Am Soc Nephrol 2014; 25:998-1012; Zager et al. Am J Physiol 2012; 303: F139-48. As an assessment of renal function, control mice and the 18 hour after N-Mgb+SnPP-treated mice had blood urea nitrogen (BUN) and plasma creatinine levels measured. Additionally, transverse 10% formalin fixed kidney sections ([…]) were cut and stained with hematoxylin and eosin (H&E) and periodic acid Schiff (PAS) to further assess potential injury.

C=Cc1c2[n-]c(c1C)/C=c1\[n-]/c(c(C)c1C=C)=C\c1[n-]c(c(CCC(=O)O)c1C)/C=c1\[n-]c(c(C)c1CCC(=O)O)=C2.[Sn+4] [SnPP, tin protoporphyrin, reference compound]
HO-1 protein expression (by ELISA), Average (HO-1; cortex, 4 hr IV, 1 mg myoglobin, 1 μmole SnPP, PBS 13.5, carrier 21.5): 34.4 ng HO-1/mg protein | HO-1 protein expression (by ELISA) (HO-1; cortex, 4 hr IV, 1 mg myoglobin, 1 μmole SnPP, individual mice): 31.5 ng HO-1/mg protein and 20.5 ng HO-1/mg protein and 53.6 ng HO-1/mg protein and 32.2 ng HO-1/mg protein | HO-1/GAPDH mRNA, Average (HO-1; kidney, 4 hr post IV injection, control average 1.93): 6.94 | HO-1/GAPDH mRNA (HO-1; kidney, 4 hr post IV injection, individual mice): 9.72 and 8.25 and 6.95 and 2.85 | Protection against glycerol-induced AKI (BUN/creatinine levels) (Male CD-1 mice): virtually no effect | half-life [1]: 2 to 4 h | Liver mRNA: IL-10 (IL-10; 4 h after Rx): 0.14 ± 0.1 | Liver protein: IL-10 (IL-10; 4 h after Rx): 485 ± 47 | Liver mRNA: IL-10 (IL-10; 18 h after Rx): 0.05 ± 0.01 | Liver protein: IL-10 (IL-10; 18 h after Rx): 8198 ± 725

Source: patent US20250195556A1, “COMPOSITIONS, KITS, AND METHODS TO INDUCE ACQUIRED CYTORESISTANCE USING STRESS PROTEIN INDUCERS” (FRED HUTCHINSON CANCER RESEARCH CENTER, priority 2014, published 2025)
